Data as given in PMC12692861, “Biotin-Linked Ursolic Acid Conjugates as Selective Anticancer Agents and Target-Identification Tools for Cancer Therapy” (Molecules, 2025).

Experiments:
[1] = target: Ribosomal L1 domain-containing protein 1 (RSL1D1) (Homo sapiens, UniProt O76021); experiment: Streptavidin pulldown proteomics (LC-MS/MS), 5637 cells; type: binding; details: 5637, 50 µM
Experimental: (§1) We used proteomics to identify potential molecular targets of 5c. A pulldown assay with streptavidin-agarose-coated magnetic beads was performed. Briefly, 5637 and MB49 cells were incubated with 50 µM 5c for 10 min and 1 h. After incubation, the cells were rinsed three times with cold phosphate-buffered saline (PBS), and cell lysates were prepared and clarified by centrifugation to remove cellular debris, including nuclei. The clarified lysates were incubated with streptavidin-coated magnetic beads to selectively bind biotinylated contents. Bound proteins were separated from unbound proteins through thorough bead washing. Proteins attached to the beads were eluted and analyzed on an Orbitrap Fusion Tribrid mass spectrometer (Thermo Scientific, New York, NY, USA) coupled with an Ultimate 3000 nano-UPLC system. Samples were trapped on a PepMap100 C18 trap column (5 µm, 0.3 × 5 mm) and separated on a PepMap RSLC C18 column (2 µm, 75 µm × 150 mm) using a gradient from 2 to 40% acetonitrile with 0.1% formic acid over 120 min at […] and 40 °C. MS data were acquired in positive mode using data-dependent acquisition (DDA), with precursor scans at 120,000 FWHM (400–2000 m/z), and MS/MS scans in top-speed mode (3 s cycle) using HCD fragmentation (NCE 32%). Proteins were identified and quantified based on peptide spectral matches (PSMs), and fold enrichment compared to controls was calculated to evaluate interaction strength.
(§2) The 5637 and MB49 cells were cultured and treated with higher concentrations of 5c (50 µM) for short period of times (10 min & 60 min) followed by whole cell lysis (WCL) preparation of both treated and untreated cells using modified RIPA buffer [NaCl (100mM), TrisCl (20mM, pH 7.4), EDTA (10 mM), TritonX-100 (0.5%), Glycerol (5%), Protease inhibitor cocktail (1x)] with gentle continuous rotation. The protein content of each WCL was estimated using Pierce™ BCA Protein Assay kit (Thermo-Scientific # 23225). The 100 µL of resuspended Dynabeads™ MyOne™ Streptavidin C1 (Invitrogen # 65001) were washed with PBST (PBS with 0.01% Tween™20) in a magnet stand as recommended in the manufacturer’s instructions. The washed beads were incubated with 200 µg of each WCL in separate tubes at room temperature for 2 h in a gentle end-over-end mixing. After incubation, beads were washed 3–5 times with PBST (0.01% Tween-20) on a magnetic stand and beads were decanted by after spinning and magnetization. The samples were stored at −80 °C till further analysis using LC-MS/MS by the Proteomics and Mass Spectrometry Core Laboratory of Augusta University.

HSP 90-alpha (HSP90α) = HSP 90-alpha (HSP90α) (Homo sapiens, UniProt P07900); experiment: as above; type: binding; details: 5637, 50 µM
Experimental: as §1, §2

Histone H2A.Z = Histone H2A.Z (Homo sapiens, UniProt P0C0S5); experiment: as above; type: binding; details: 5637, 50 µM
Experimental: as §1, §2

Histone H4 = Histone H4 (Homo sapiens, UniProt P62805); experiment: as above; type: binding; details: 5637, 50 µM
Experimental: as §1, §2

[2] = target: ATP synthase subunit alpha (Homo sapiens, UniProt P25705); experiment: as above; type: binding; details: 5637, 50 µM
Experimental: as §1, §2

[3] = target: Elongation factor 1-gamma (EF1γ) (Homo sapiens, UniProt P26641); experiment: as above; type: binding; details: 5637, 50 µM
Experimental: as §1, §2

ATP synthase subunit O = ATP synthase subunit O (Homo sapiens, UniProt P48047); experiment: as above; type: binding; details: 5637, 50 µM
Experimental: as §1, §2

[4] = target: Ras GTPase-activating-like protein IQGAP1 (Homo sapiens, UniProt P46940); experiment: as above; type: binding; details: 5637, 50 µM
Experimental: as §1, §2

[5] = target: D-3-phosphoglycerate dehydrogenase (Homo sapiens, UniProt O43175); experiment: as above; type: binding; details: 5637, 50 µM
Experimental: as §1, §2

Filamin-A (FLNA) = Filamin-A (FLNA) (Homo sapiens, UniProt P21333); experiment: as above; type: binding; details: 5637, 50 µM
Experimental: as §1, §2

[6] = target: Eukaryotic translation initiation factor 5B (eIF5B) (Homo sapiens, UniProt O60841); experiment: as above; type: binding; details: 5637, 50 µM
Experimental: as §1, §2

[7] = target: ATP synthase subunit beta (Homo sapiens, UniProt P06576); experiment: as above; type: binding; details: 5637, 50 µM
Experimental: as §1, §2

5637 cells = experiment: ROS estimation with H2DCFDA; type: cell-based, human; details: 5637, 24 h, especially at concentrations above 20 µM
Experimental: Since 5c was not toxic to non-tumorigenic cells, such as MCF12A and UROtsa, these cells were excluded from experiments aimed at identifying the broad mechanism of cytotoxicity. A common mechanism by which these antioxidants induce cytotoxicity in tumor cells is by generating Reactive Oxygen Species (ROS) selectively in fast-growing tumor cells. The levels of ROS generated by 5c exposed cells were evaluated with the oxidation of 2′,7′-dichlorodihydrofluorescein diacetate (H2DCFDA). It is a cell-permeant fluorescent probe used for detecting ROS production (Thermo Scientific Inc., Waltham, MA, USA). […] Figure 3 illustrates the quantification of intracellular ROS levels in four bladder cancer cell lines, 5637, T24, HT-1376, and MB49, following treatment with UA and its biotin-conjugated derivative, compound 5c.
The relative levels of intracellular ROS produced in untreated and drug-treated cells were analyzed by fluorimetry using the fluorescent probe H2DCFDA (Sigma-Aldrich, #D6883, St. Louis, MI, USA), as described previously. Briefly, cells cultured in a 96-well plate at 1 × 10^4 cells per well were treated with drugs of interest for 24 h rinsed with sterile PBS to remove excess drugs, and incubated with 10 μM DCFDA for 30 min at 37 °C and 5% CO2. Following three rinses with PBS, the fluorescence intensity was recorded at excitation: 485/20, emission: 528/20 using a BioTek Synergy HTX Multimode fluorescence plate reader (Agilent Technologies, Inc., Santa Clara, CA, USA), and the data were represented as percentage change compared to the respective untreated control.
Figure 3 Estimation of oxidative stress: Treatment with UA or 5c increased ROS levels in various bladder cancer cells. ROS levels were estimated at 24 h using DCFDA. The relative fluorescence unit (RFU) was normalized to that observed in untreated cells and expressed as a percent increase. Data are Means ± SD, (n = 4). Relative significance, expressed as p-value are calculated based on one-way ANOVA.

[8] = system: ATP-binding cassette sub-family A; experiment: Streptavidin pulldown proteomics (LC-MS/MS), 5637 cells; set-up: species or system human; details: 5637, 50 µM
Experimental: as §1, with “MS data were acquired in positive mode using data-dependent acquisition (DDA), with precursor scans at 120,000 FWHM (400–2000 m/z), and MS/MS scans in top-speed mode (3 s cycle) using HCD fragmentation (NCE 32%).” left out, “strength. […]” for “strength.”

Sequence of D-3-phosphoglycerate dehydrogenase (O43175 whole entry): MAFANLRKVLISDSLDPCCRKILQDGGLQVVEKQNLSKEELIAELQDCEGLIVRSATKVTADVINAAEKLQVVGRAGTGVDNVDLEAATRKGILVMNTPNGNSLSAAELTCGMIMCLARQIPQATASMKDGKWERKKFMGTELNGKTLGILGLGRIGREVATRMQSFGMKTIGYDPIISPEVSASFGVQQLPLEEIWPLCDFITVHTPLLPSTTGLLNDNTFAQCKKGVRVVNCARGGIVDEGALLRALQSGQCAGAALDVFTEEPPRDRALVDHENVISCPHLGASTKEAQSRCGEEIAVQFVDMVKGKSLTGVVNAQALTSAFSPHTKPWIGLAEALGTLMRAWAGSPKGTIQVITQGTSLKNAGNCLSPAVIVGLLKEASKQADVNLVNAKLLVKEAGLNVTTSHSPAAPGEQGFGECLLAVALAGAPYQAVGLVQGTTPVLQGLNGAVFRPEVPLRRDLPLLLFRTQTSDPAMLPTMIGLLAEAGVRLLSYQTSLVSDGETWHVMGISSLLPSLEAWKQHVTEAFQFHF
Sequence of Eukaryotic translation initiation factor 5B (eIF5B) (O60841 whole entry): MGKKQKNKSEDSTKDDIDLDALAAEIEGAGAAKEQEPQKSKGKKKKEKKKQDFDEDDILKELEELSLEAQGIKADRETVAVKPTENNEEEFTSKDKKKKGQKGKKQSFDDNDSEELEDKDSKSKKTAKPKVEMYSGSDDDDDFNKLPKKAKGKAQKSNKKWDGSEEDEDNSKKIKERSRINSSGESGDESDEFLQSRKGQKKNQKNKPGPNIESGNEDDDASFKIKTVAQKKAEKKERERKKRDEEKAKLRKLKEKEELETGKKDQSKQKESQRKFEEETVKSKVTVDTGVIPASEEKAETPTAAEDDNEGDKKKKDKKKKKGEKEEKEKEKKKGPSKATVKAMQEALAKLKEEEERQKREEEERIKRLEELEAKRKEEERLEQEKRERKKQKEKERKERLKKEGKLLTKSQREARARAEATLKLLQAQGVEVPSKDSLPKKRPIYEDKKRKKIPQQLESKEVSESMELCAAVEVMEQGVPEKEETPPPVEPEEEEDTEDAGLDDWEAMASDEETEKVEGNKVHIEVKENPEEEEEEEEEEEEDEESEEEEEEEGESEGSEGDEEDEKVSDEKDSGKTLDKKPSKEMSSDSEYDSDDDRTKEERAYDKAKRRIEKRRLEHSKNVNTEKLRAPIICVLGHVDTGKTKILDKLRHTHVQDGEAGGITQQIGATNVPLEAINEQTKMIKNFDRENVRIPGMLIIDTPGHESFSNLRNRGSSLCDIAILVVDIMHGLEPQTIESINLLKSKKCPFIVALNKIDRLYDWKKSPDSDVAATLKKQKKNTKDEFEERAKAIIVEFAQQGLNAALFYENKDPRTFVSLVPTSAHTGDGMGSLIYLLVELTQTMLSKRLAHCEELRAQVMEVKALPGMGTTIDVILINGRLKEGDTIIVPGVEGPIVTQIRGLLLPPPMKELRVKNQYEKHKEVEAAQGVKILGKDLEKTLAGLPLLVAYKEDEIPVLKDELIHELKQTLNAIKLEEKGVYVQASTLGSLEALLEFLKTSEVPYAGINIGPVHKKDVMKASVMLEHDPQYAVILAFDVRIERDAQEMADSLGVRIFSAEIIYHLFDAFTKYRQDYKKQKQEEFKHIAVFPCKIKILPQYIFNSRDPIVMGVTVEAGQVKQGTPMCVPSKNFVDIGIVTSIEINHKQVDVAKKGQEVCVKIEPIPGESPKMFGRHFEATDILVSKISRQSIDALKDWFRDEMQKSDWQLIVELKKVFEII
Sequence of Histone H2A.Z (P0C0S5 whole entry): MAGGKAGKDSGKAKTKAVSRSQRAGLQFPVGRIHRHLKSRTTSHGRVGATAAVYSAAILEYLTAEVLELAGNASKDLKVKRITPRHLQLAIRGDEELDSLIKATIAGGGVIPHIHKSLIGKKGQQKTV
Sequence of Filamin-A (FLNA) (P21333 whole entry): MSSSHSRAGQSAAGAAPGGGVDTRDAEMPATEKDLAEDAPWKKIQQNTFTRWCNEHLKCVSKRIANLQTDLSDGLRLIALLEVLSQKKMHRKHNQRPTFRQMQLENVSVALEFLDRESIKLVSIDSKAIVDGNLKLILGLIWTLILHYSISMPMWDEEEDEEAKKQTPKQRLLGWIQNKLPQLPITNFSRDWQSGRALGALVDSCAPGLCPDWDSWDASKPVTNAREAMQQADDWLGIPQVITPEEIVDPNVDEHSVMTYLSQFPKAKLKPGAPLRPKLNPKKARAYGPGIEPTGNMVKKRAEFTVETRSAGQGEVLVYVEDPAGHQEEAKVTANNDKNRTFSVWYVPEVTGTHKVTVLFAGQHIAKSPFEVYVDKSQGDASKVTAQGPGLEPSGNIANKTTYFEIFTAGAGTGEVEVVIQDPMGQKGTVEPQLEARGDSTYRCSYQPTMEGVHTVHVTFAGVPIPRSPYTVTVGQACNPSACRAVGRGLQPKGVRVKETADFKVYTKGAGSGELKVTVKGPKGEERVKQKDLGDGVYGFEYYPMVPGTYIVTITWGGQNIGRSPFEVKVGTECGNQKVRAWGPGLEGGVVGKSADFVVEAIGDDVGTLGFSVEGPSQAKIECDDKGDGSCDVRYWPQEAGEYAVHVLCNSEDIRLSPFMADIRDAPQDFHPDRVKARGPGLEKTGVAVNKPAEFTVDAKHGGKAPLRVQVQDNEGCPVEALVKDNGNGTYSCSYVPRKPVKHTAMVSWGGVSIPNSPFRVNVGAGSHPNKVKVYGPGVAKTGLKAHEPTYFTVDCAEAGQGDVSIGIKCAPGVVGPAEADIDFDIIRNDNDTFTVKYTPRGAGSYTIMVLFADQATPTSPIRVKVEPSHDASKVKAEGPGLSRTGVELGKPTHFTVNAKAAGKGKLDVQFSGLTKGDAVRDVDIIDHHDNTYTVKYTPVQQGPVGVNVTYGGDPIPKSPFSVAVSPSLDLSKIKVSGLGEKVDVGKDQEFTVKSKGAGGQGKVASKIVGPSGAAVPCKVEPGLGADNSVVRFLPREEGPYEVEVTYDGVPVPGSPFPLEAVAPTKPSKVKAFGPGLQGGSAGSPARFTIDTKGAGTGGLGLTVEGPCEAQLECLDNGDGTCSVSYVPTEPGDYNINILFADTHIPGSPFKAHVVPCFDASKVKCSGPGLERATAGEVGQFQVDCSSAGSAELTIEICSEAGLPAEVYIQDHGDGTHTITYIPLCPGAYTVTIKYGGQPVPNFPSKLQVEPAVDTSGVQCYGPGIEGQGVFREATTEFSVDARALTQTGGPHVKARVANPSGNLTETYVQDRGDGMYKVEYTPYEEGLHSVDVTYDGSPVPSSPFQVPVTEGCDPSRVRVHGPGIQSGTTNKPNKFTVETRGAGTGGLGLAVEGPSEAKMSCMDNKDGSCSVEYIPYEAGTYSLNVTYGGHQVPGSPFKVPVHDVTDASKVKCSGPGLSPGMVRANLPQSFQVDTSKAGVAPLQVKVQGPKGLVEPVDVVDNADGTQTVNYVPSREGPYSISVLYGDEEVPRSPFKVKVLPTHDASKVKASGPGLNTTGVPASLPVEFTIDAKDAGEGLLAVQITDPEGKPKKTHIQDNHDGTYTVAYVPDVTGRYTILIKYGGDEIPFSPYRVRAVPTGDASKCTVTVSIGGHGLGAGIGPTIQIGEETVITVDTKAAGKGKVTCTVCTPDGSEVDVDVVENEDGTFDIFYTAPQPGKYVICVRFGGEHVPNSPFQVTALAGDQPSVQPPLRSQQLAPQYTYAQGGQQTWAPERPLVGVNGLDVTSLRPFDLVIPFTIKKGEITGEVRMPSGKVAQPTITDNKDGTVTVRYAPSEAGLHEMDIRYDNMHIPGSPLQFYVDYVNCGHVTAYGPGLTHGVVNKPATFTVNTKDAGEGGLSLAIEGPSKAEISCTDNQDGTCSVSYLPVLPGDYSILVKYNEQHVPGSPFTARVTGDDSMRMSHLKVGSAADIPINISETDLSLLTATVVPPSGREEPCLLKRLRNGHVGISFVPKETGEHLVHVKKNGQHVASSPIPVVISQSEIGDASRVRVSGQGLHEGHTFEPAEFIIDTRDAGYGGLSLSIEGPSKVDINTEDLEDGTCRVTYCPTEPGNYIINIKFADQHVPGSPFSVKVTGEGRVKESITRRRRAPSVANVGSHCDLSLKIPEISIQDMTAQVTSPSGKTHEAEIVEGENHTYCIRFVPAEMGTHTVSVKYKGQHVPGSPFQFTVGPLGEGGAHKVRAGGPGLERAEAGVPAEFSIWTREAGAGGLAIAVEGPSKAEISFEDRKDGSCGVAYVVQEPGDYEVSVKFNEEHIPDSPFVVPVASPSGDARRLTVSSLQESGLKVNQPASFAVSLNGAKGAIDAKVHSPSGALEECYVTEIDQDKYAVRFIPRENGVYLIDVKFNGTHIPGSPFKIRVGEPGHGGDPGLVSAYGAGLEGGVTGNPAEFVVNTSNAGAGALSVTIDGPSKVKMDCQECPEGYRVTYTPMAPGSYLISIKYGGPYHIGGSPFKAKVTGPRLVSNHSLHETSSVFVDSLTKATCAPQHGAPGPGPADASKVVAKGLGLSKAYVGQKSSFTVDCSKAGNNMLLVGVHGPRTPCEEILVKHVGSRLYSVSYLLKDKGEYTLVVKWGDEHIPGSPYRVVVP
Sequence of Elongation factor 1-gamma (EF1γ) (P26641 whole entry): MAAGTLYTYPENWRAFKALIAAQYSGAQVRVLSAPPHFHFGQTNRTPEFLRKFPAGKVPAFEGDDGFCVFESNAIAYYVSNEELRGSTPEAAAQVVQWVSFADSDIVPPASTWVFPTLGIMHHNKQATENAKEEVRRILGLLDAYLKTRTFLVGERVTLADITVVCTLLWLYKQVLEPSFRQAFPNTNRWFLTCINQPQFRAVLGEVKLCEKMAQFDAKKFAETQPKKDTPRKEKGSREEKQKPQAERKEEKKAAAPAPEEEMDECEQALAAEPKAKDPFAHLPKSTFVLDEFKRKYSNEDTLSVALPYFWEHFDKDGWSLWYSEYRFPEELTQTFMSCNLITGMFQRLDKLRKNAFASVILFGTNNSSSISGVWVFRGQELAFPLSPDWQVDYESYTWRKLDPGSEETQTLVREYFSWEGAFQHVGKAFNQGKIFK

Fold Change 10 min/Ctrl [1]: 5
Fold Change 1 h/Ctrl [1]: 4
Fold Change 10 min/Ctrl (HSP 90-alpha (HSP90α)): 119
Fold Change 1 h/Ctrl (HSP 90-alpha (HSP90α)): 111
Fold Change 10 min/Ctrl (Histone H2A.Z): 5.85
Fold Change 1 h/Ctrl (Histone H2A.Z): 4.78
Fold Change 10 min/Ctrl (Histone H4): 13.23
Fold Change 1 h/Ctrl (Histone H4): 11.08
Fold Change 10 min/Ctrl [2]: 1.63
Fold Change 1 h/Ctrl [2]: 2
Fold Change 1 h/Ctrl [3]: 6
Fold Change 10 min/Ctrl (ATP synthase subunit O): 3
Fold Change 1 h/Ctrl (ATP synthase subunit O): 3
Fold Change 10 min/Ctrl [4]: 3.5
Fold Change 1 h/Ctrl [4]: 2.25
Fold Change 10 min/Ctrl [5]: 15
Fold Change 1 h/Ctrl [5]: 10
Fold Change 10 min/Ctrl (Filamin-A (FLNA)): 16
Fold Change 1 h/Ctrl (Filamin-A (FLNA)): 18
Fold Change 10 min/Ctrl [6]: 32
Fold Change 1 h/Ctrl [6]: 34
Fold Change 10 min/Ctrl [7]: 3.29
Fold Change 1 h/Ctrl [7]: 5
Compound: CC1CCC2(C(=O)OCCCCOC(=O)CCCCC3SCC4NC(=O)NC43)CCC3(C)C(=CCC4C5(C)CCC(O)C(C)(C)C5CCC43C)C2C1C [Compound 5c, 4-((5-((3aS,4S,6aR)-2-Oxohexahydro-1H-thieno [3,4-d]imidazol-4-yl)pentanoyl)oxy) butyl 3-hydroxy-urs-12-en-28-oate]
ROS levels (5637 cells): higher levels of ROS than UA
Fold Change 10 min/Ctrl [8]: 3
Fold Change 1 h/Ctrl [8]: 5
